This is an account of results in ChEMBL document CHEMBL3400006, “Improving the passive permeability of macrocyclic peptides: Balancing permeability with other physicochemical properties” (Bioorg Med Chem, 2015).

Values after ≈ are worked out from the molar mass of the structure shown. Square brackets hold non-standard residues; d marks the D form. Peptide text beside a SMILES is read from it. 2Pal = N[C@@H](Cc1ccccn1)C(=O)O; 4Pal = N[C@@H](Cc1ccncc1)C(=O)O

The nature of series [1]: Solubility of the compound in phosphate buffer at pH 7.4 by chemi-luminescent nitrogen detection method. The format is physicochemical.
Series [2] in a line: Lipophilicity, log D of the compound at pH 7.4 by ChromlogD analysis. The format is physicochemical. To be noted: buffer.
Series [3] can be described thus: Permeability of the compound at donor pH 7.4 and acceptor pH 7.4 after 3 hrs incubation by PAMPA analysis. Format: ADME. To be noted: read-out: permeability.

Take `CC(C)C[C@@H]1NC(=O)[C@H](Cc2ccc(O)cc2)N(C)C(=O)[C@@H]2CCCN2C(=O)[C@H](CC(C)C)NC(=O)[C@H](CC(C)C)N(C)C(=O)[C@@H](CC(C)C)N(C)C1=O`: in series [1], the solubility is 53.7 µM (≈ 40.5 µg/mL). The same compound showed a chromatographic logD in series [2] of 8.32.
In the case of `CC(C)C[C@@H]1NC(=O)[C@@H](CC(C)C)NC(=O)[C@H](CC(C)C)NC(=O)[C@@](C)(CC(C)C)NC(=O)[C@H](Cc2ccc(O)cc2)NC(=O)[C@@H]2CCCN2C(=O)[C@H](CC(C)C)NC1=O`, the concentration in solution in series [1] (solubility) was 102 µM (≈ 86.1 µg/mL). Besides, the Papp at 3 h in series [3] was 30.3 ×10⁻⁶ cm/s. Also, in series [2], the chromatographic logD is 6.65.
Regarding `CC(C)C[C@@H]1NC(=O)[C@H](Cc2ccc(O)cc2)NC(=O)[C@@H]2CCCN2C(=O)[C@H](CC(C)C)NC(=O)[C@](C)(CC(C)C)NC(=O)[C@@H](CC(C)C)NC1=O`, the solubility in series [1] is 78 µM (≈ 56.7 µg/mL). Also, the Papp at 3 h in series [3] was 35 ×10⁻⁶ cm/s. In series [2], this compound came in with a chromatographic logD of 6.56.
As for `CC(C)C[C@@H]1NC(=O)[C@@H](CC(C)C)NC(=O)[C@H](CC(C)C)NC(=O)[C@@H](CC(C)C)NC(=O)[C@H](Cc2ccc(O)cc2)NC(=O)[C@@H]2CCCN2C(=O)[C@H](CC(C)C)NC1=O`, the solubility in series [1] turned out to be 51.7 µM (≈ 42.7 µg/mL). In addition, the Papp at 3 h in series [3] is 13 ×10⁻⁶ cm/s. For the same compound, in series [2], the chromatographic logD amounted to 5.98.
In the same order, the values of `CC(C)C[C@@H]1NC(=O)[C@H](Cc2ccc(O)cc2)NC(=O)[C@@H]2CCCN2C(=O)[C@H](CC(C)C)NC(=O)[C@H](CC(C)C)NC(=O)[C@H](Cc2ccccc2)NC1=O` (cyclo(FLLPYL)) are 206 µM (≈ 153 µg/mL), 20 ×10⁻⁶ cm/s and 6.05.
In the same order, the values of `CC(C)C[C@@H]1NC(=O)[C@@H](CC(C)C)NC(=O)[C@H]([C@@H](C)O)NC(=O)[C@H](Cc2ccc(O)cc2)NC(=O)[C@@H]2CCCN2C(=O)[C@H](CC(C)C)NC1=O` are 372 µM (≈ 261 µg/mL), below 0.65 ×10⁻⁶ cm/s and 4.65.
On to `CC(C)C[C@@H]1NC(=O)[C@@H](CC(C)C)NC(=O)[C@H](Cc2ccc(O)cc2)NC(=O)[C@@H]2CCCN2C(=O)[C@H](CC(C)C)NC(=O)[C@](C)(CC(C)C)NC(=O)[C@@H](CC(C)C)NC1=O`, for which the concentration in solution in series [1] (solubility) came to 122 µM (≈ 103 µg/mL). Also, the Papp at 3 h in series [3] was determined as 18.5 ×10⁻⁶ cm/s. In addition, the chromatographic logD in series [2] is 6.88.
For `CC(C)C[C@@H]1NC(=O)[C@H](Cc2ccc(O)cc2)NC(=O)[C@@H]2CCCN2C(=O)[C@H](CC(C)C)NC(=O)[C@H](CC(C)C)N(C)C(=O)[C@@H](CC(C)C)N(C)C1=O` the same measures were 103 µM (≈ 76.3 µg/mL), 34.7 ×10⁻⁶ cm/s and 7.52.
`CC(C)C[C@@H]1NC(=O)[C@H](CC(C)C)NC(=O)[C@@H](CC(C)C)NC(=O)[C@H](Cc2ccc(O)cc2)NC(=O)[C@@H]2CCCN2C(=O)[C@H](CC(C)C)NC1=O`: the solubility in series [1] was determined as 324 µM (≈ 231 µg/mL). In addition, the chromatographic logD in series [2] worked out at 5.07.
On to `CC(C)C[C@@H]1NC(=O)[C@@H](CC(C)C)NC(=O)[C@@H]([C@H](C)O)NC(=O)[C@H](Cc2ccc(O)cc2)NC(=O)[C@@H]2CCCN2C(=O)[C@H](CC(C)C)NC1=O`, for which, in series [1], the concentration in solution (solubility) was 371 µM (≈ 260 µg/mL). Besides, the Papp at 3 h in series [3] was 1.05 ×10⁻⁶ cm/s. Further, the chromatographic logD in series [2] came out at 4.2.
The compound `CC(C)C[C@@H]1NC(=O)[C@H](Cc2ccc(O)cc2)NC(=O)[C@@H]2CCCN2C(=O)[C@H](CC(C)C)NC(=O)[C@H](CC(C)C)NC(=O)[C@H](Cc2ccccn2)NC1=O` (cyclo([2Pal]LLPYL)) registered a solubility in series [1] of 485 µM (≈ 363 µg/mL). The Papp at 3 h in series [3] came out at 1.35 ×10⁻⁶ cm/s. The compound further registered a chromatographic logD in series [2] of 4.75.
In series [1], `CC(C)C[C@@H]1NC(=O)[C@H](Cc2ccc(O)cc2)NC(=O)[C@@H]2CCCN2C(=O)[C@H](CC(C)C)NC(=O)[C@H](CC(C)C)NC(=O)[C@@H](CC(C)C)NC1=O` had a solubility of 170 µM (≈ 121 µg/mL). The chromatographic logD in series [2] is 5.53.
Compound `CC(C)C[C@@H]1NC(=O)[C@@H](CC(C)C)NC(=O)[C@@H](CC(C)C)NC(=O)[C@H](Cc2ccc(O)cc2)NC(=O)[C@H]2CCCN2C(=O)[C@@H](CC(C)C)NC1=O` had a solubility in series [1] of 248 µM (≈ 177 µg/mL). In addition, the chromatographic logD in series [2] was determined as 5.57.
`CC(C)C[C@@H]1NC(=O)[C@@H](CC(C)C)NC(=O)[C@](C)(CC(C)C)NC(=O)[C@H](Cc2ccc(O)cc2)NC(=O)[C@@H]2CCCN2C(=O)[C@H](CC(C)C)NC1=O` registered a solubility in series [1] of 148 µM (≈ 108 µg/mL). Further, the Papp at 3 h in series [3] worked out at 17 ×10⁻⁶ cm/s. The chromatographic logD in series [2] turned out to be 6.11.
In the case of `CC(C)C[C@@H]1NC(=O)[C@H](Cc2ccc(O)cc2)NC(=O)[C@@H]2CCCN2C(=O)[C@H](CC(C)C)NC(=O)[C@H](CC(C)C)NC(=O)[C@H](Cc2ccncc2)NC1=O` (cyclo([4Pal]LLPYL)), in series [1], the concentration in solution (solubility) came to 451 µM (≈ 337 µg/mL). For the same compound, in series [3], the Papp at 3 h is below 0.65 ×10⁻⁶ cm/s. In series [2], this compound gave a chromatographic logD of 4.45.
`CC(C)C[C@@H]1NC(=O)[C@@H](CC(C)C)NC(=O)[C@H](CC(C)C)NC(=O)[C@@](C)(CC(C)C)NC(=O)[C@@H](Cc2ccc(O)cc2)NC(=O)[C@@H]2CCCN2C(=O)[C@H](CC(C)C)NC1=O` showed a solubility in series [1] of 28.5 µM (≈ 23.9 µg/mL). Also, the Papp at 3 h in series [3] is 30 ×10⁻⁶ cm/s. Further, in series [2], the chromatographic logD came out at 7.21.
`CC(C)C[C@@H]1NC(=O)[C@@H](CC(C)C)N(C)C(=O)[C@H](CC(C)C)NC(=O)[C@H](Cc2ccc(O)cc2)NC(=O)[C@@H]2CCCN2C(=O)[C@H](CC(C)C)NC1=O`: the concentration in solution in series [1] (solubility) was 192 µM (≈ 140 µg/mL). Besides, the Papp at 3 h in series [3] was 14.4 ×10⁻⁶ cm/s. This compound came in with a chromatographic logD in series [2] of 6.19.
